The test deals with Plasmodium berghei. Kind of test: Luciferase/luciferin-expressing antifolate-resistant parasites were used to infect a culture of HepG2 cells that were pre-incubated with compounds. Infected hepatocytes emit light due to the luciferase reaction. Assay results are presented as the percent inhibition of light emission compared to control. […]. The conditions noted are these: sporozoite; for IC90: read-out: LUCIFERASE INFECTION ASSAY - IC90. Type of test: functional.

[1] abbreviates: read-out: LUCIFERASE INFECTION ASSAY - IC50.

The structures appear in SMILES notation.

IC50 and IC90 data for 27 molecules are collected here from ChEMBL document CHEMBL4483862, “Open-source discovery of chemical leads for next-generation chemoprotective antimalarials” (2018).

`O=C(NC(=O)c1cc(Br)cc(Br)c1)Nc1cc(C(F)(F)F)cc(C(F)(F)F)c1`: the IC90 stood at 5.3 µM. In addition, the IC50 (HEPG2TOX_HILL_SLOPE 7.89, HEPG2TOX_R_SQUARED 0.4, PBLUC_HILL_SLOPE 3.95, PBLUC_R_SQUARED 0.259, read-out: LUCIFERASE INFECTION ASSAY - IC50) was 3.04 µM.

In the case of `O=C(O)CNC(=O)/C=C/c1ccccc1` [CINNAMOYLGLYCINE], the IC90 was over 10 µM. Besides, the IC50 under setting [1] is over 10 µM.

Consider `CCOc1ccc(-c2nc(CC(=O)NCc3ccnc(OC)c3)cs2)cc1`, for which the IC90 came to 3.46 µM. The IC50 (PBLUC_HILL_SLOPE 12.8, PBLUC_R_SQUARED 0.477, read-out: LUCIFERASE INFECTION ASSAY - IC50) turned out to be 2.91 µM.

Take `CCN(CC)S(=O)(=O)c1ccc(-c2ccc(C3NC(N)=Nc4nc5ccccc5n43)o2)cc1` (centres undefined): the IC90 is over 10 µM. Also, under setting [1], the IC50 is over 10 µM.

For the molecule `CN1/C(=C\C(=O)COC(=O)c2cc3ccccc3cc2O)C(C)(C)c2ccccc21`, the IC90 is over 10 µM. The IC50 under setting [1] was over 10 µM.

As to `Cn1c(N)c(C(=O)CSc2nnc(-c3ccccc3)c(-c3ccccc3)n2)c(=O)n(C)c1=O`, the IC90 is over 10 µM. For the same molecule, the IC50 (PBLUC_HILL_SLOPE 1.94, PBLUC_R_SQUARED 0.495, read-out: LUCIFERASE INFECTION ASSAY - IC50) is 3.75 µM.

As for `Cc1cc(C(=O)C(C)OC(=O)c2ccc(S(C)(=O)=O)c([N+](=O)[O-])c2)c(C)n1-c1ccc(Cl)cc1` (centres undefined), the IC90 was over 10 µM. In addition, the IC50 under setting [1] is over 10 µM.

As to `Cc1cc2oc(C(=O)Nc3nonc3-c3ccc(F)cc3)c(C)c2cc1Cl`, the concentration for an effect of 90% (IC90) was over 8.55 µM. The IC50 under setting [1] was over 8.55 µM.

Turning to `O=C(Nc1ccccc1O)c1ccccc1NS(=O)(=O)c1ccc(Cl)s1`, the IC90 turned out to be 7.2 µM. Moreover, where the note is “HEPG2TOX_HILL_SLOPE 3.8, HEPG2TOX_R_SQUARED 0.66, PBLUC_HILL_SLOPE 5.25, PBLUC_R_SQUARED 0.554, read-out: LUCIFERASE INFECTION ASSAY - IC50”, the IC50 amounted to 4.74 µM.

As for `CCn1c(C)nc2cc(C(=O)NNC(=O)c3cc4c(C)nn(-c5cccc(C(F)(F)F)c5)c4s3)ccc21`, the IC90 is over 10 µM. Besides, under setting [1], the IC50 is over 10 µM.

On to `CC(C)(C)c1ccc(C(=O)NCCOc2ccccc2F)cc1`, for which the IC90 stood at 0.642 µM. Besides, the IC50 (FFLUC_HILL_SLOPE 1.22, FFLUC_R_SQUARED 0.498, PBLUC_HILL_SLOPE 0.635, PBLUC_R_SQUARED 0.572, read-out: LUCIFERASE INFECTION ASSAY - IC50) is 0.0201 µM.

Consider `O=S(=O)(NCCCCOc1ccc(Cl)cc1)c1ccc(S(=O)(=O)N2CCOCC2)cc1`, for which the IC90 is over 10 µM. In addition, the IC50 under setting [1] was 9.97 µM.

For `N#CCS(=O)(=O)c1ccc(OC(F)(F)F)cc1`, the IC90 is over 12.4 µM. The IC50 under setting [1] is over 12.4 µM.

`O=c1c(Cl)c2oc3ccccc3nc-2c2ccccc12`: the IC90 is over 11.7 µM. Further, under “HEPG2TOX_HILL_SLOPE 6.69, HEPG2TOX_R_SQUARED 0.668, PBLUC_HILL_SLOPE 2.65, PBLUC_R_SQUARED 0.745, read-out: LUCIFERASE INFECTION ASSAY - IC50”, the IC50 is 5.79 µM.

On to `COc1ccc(CNCc2ccc3ccccc3c2)cc1`, for which the IC90 is over 11.9 µM. Further, under setting [1], the IC50 is over 11.9 µM.

For the molecule `C=C1CC2(C)C(=CC1=O)CCC1C2CCC2(C)C(O)CCC12` (centres undefined), the IC90 is 5.89 µM. The IC50 (HEPG2TOX_HILL_SLOPE 3.95, HEPG2TOX_R_SQUARED 0.554, PBLUC_HILL_SLOPE 10.4, PBLUC_R_SQUARED 0.356, read-out: LUCIFERASE INFECTION ASSAY - IC50) was determined as 4.77 µM.

Regarding `CCc1ccc(-c2noc(CN3CCN(C(=O)c4ccccc4)CC3)n2)cc1`, the IC90 was over 10 µM. In addition, the IC50 (HEPG2TOX_HILL_SLOPE 8.06, HEPG2TOX_R_SQUARED 0.791, read-out: LUCIFERASE INFECTION ASSAY - IC50) was over 10 µM.

For `Cc1cccc(C)c1OCCOC(=O)c1[nH]nc2ccccc12`, the IC90 is over 10 µM. Under setting [1], the IC50 was over 10 µM.

For the molecule `CN(C)S(=O)(=O)c1cccc(COC(=O)C2(c3ccc(F)cc3)CCCC2)c1`, the IC90 is over 10 µM. The IC50 (PBLUC_HILL_SLOPE 13, PBLUC_R_SQUARED 0.517, read-out: LUCIFERASE INFECTION ASSAY - IC50) came to 8.83 µM.

Take `Cc1cc(C(C)(C)C)cc(C)c1N1C(=O)C=CC1=O`: the IC90 is over 12.8 µM. Further, the concentration for half-maximal inhibition (IC50) (HEPG2TOX_HILL_SLOPE 11.2, HEPG2TOX_R_SQUARED 0.888, PBLUC_HILL_SLOPE 4.45, PBLUC_R_SQUARED 0.621, read-out: LUCIFERASE INFECTION ASSAY - IC50) is 8.96 µM.

In the case of `Cc1ccc(NC(=O)/C(=C/c2cccc(F)c2)n2nnnc2C)cc1S(=O)(=O)N1CCCCCC1`, the IC90 was 4.24 µM. Further, for the setting “HEPG2TOX_HILL_SLOPE 12.2, HEPG2TOX_R_SQUARED 0.863, PBLUC_HILL_SLOPE 25.1, PBLUC_R_SQUARED 0.833, read-out: LUCIFERASE INFECTION ASSAY - IC50”, the IC50 stood at 3.89 µM.

As to `COc1ccc(/C=C/c2nc3cc(-c4nc5ccccc5[nH]4)ccc3s2)cc1`, the IC90 came out at 4.48 µM. Moreover, the IC50 under setting [1] was 1.84 µM.

On to `CSc1nc(N/C=C2/C(=O)c3ccccc3N(C)S2(=O)=O)nc(N(C)C)n1`, for which the IC90 is over 8.12 µM. In addition, the IC50 under setting [1] is over 8.12 µM.

As for `CCCCCN1C(=O)/C(=N\n2c(-c3ccccc3F)cs/c2=N\C2CCCCC2)c2ccccc21`, the IC90 is over 10 µM. Moreover, under “FFLUC_HILL_SLOPE 1.7, FFLUC_R_SQUARED 0.73, PBLUC_HILL_SLOPE 13.5, PBLUC_R_SQUARED 0.29, read-out: LUCIFERASE INFECTION ASSAY - IC50”, the IC50 turned out to be 8.58 µM.

On to `CC(C)c1ccc(C(NCC(=O)NC(=O)NC2CCCC2)c2cccs2)cc1` (centres undefined), for which the IC90 was over 10 µM. In addition, under setting [1], the IC50 is over 10 µM.

As to `O=C(CCc1nc(=O)c2ccccc2[nH]1)OC(C(=O)c1c[nH]c2ccccc12)c1ccccc1` (centres undefined), the IC90 was over 10 µM. For the same molecule, the IC50 under setting [1] is over 10 µM.

Take `Cc1nn(CC(C)C)c(C)c1CC(=O)NCc1ccccc1Cn1cccn1`: the IC90 is over 10 µM. Further, under setting [1], the IC50 is over 10 µM.
